Patent US20030105046A1, “Interleukin converting enzyme (ICE) and central nervous system damage” (The General Hospital Corporation, priority 1997, published 2003)

Columns and labels:
[1] = system: apoptosis in an cell-free system; conditions: Nicholson et al., Nature 376 (1995), read-out: Dose causing 50% inhibition of apoptosis; cited from earlier work
[2] = system: traumatic brain injury in C57BL/6 mice; assay: Weight drop traumatic brain injury, lesion volume by TTC staining; assay type: in vivo, mouse
Description: Brain trauma experiments and lesion quantification were performed essentially as described (Chan, P. H., et al., Ann. NY Acad. Sci. 738:93-103 (1994)). Spontaneously ventilating adult mice were initially anesthetized with halothane in 70% N2O and 30% O2, and fixed in a stereotactic frame. Before trauma, an atraumatic craniectomy was performed by removing the right parietal bone posterior to the coronal, lateral to the sagittal, and anterior to the lambdoid suture. Laterally, the craniectomy was extended to the insertion of the temporalis muscle. […] A 20 g weight was dropped inside a cylinder from a height of 150 mm onto the piston (final speed v=1.70 m/s). Twenty-four hours after trauma, brains were removed and sectioned into five coronal (2 mm) slices and stained with 2% 2,3,5-triphenyl tetrazolium chloride (TTC) as described for a weight drop trauma model (Chan, P. H., et al., Ann. NY Acad. Sci. 738:93-103 (1994)). Surgical procedure as well as quantification of lesion size was performed by an investigator naive to the animal identity. Lesion volume was calculated using an image analysis system (M4, Imaging Research, St. Catherines, Ontario, Canada) from the total lesion volume integrated from the volumes of each single section, after subtracting the volume of the deficient cortex as caused by piston penetration. The volume of the piston penetration was calculated as that of a cylinder (pr^2h=3.14×1.5^2×3 mm^3=21.2 mm^3), where r is the radius of the piston, and h the depth of penetration. The trauma protocol was approved by the IACUC. The NSE-M17Z and wild-type littermate mice were bred from C57BL/6 background, and the wild-type mice used for zVAD-fink injection experiments were C57BL/6 (Taconic Farms, Germantown, N.Y.). NSE-M17Z mice were genotyped as previously described (Friedlander, R. M., et al., J. Exp. Med. 185:933-940 (1997)). zVAD-fmk (480 ng) or vehicle (DMSO 0.4%) was injected i.c.v. (2 μl; bregma −0.9 mm lateral, −0.1 mm posterior, −3.1 mm deep) 1 hour before or 1 hour after trauma.
Data are presented as mean±SEM. Statistical comparisons were made by Student's t-test. For comparison of lesion size two-way ANOVA followed by Tukey posthoc tests was applied. P<0.05 was considered statistically significant. For statistical evaluation by Student's t-test, data on OH production was log transformed.

[3] = target: Interleukin-1beta converting enzyme (ICE; caspase-1), wild-type murine, endogenous (mouse) (UniProt P29452); assay: cell-based or functional assay
UniProt P29452, sequence (P29452 whole entry D56N): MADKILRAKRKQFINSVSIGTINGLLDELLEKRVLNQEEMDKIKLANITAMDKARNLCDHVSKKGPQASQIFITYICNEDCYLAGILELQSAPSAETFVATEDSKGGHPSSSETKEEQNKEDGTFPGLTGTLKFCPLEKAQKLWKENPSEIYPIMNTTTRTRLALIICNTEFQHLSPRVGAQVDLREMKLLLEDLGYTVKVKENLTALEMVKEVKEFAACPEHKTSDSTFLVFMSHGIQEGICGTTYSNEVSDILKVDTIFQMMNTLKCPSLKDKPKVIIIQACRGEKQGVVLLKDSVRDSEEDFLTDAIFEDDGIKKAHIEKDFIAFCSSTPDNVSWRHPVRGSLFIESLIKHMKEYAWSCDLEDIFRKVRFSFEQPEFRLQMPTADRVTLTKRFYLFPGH

**Q.** Which IC50 [1] does the source give for Ac-DEVD-CHO here?
**A.** The IC50 was 1 µM.

**Q.** What does the source list for “N-benzyloxycarbonyl-Val-Ala-Asp-fluoromethylketone [zVAD-fink]”?
**A.** Total lesion volume vs. vehicle (significance) ([2]; 480 ng i.c.v. 1 hour after trauma, 24 hours following impact): not significantly different; Size of lesion in the two most anterior sections (2-6 mm) vs. vehicle ([2]; 480 ng i.c.v. 1 hour after trauma, P<0.05, n=5): significantly reduced; Reduction of total lesion volume vs. vehicle-injected mice ([2]; 480 ng i.c.v. 1 hour prior to impact, lesion assessed 24 hours following trauma): 53%; Reduction of lesion volume vs. vehicle-injected mice ([2]; 480 ng i.c.v. one hour following trauma, lesion assessed 24 hours following trauma): 19%

**Q.** For “fused mutant ICE (C284G)-lacZ protein (M17Z), expressed in neurons of NSE-M17Z transgenic mice (from UniProt P29452 1-402)”, which mature IL-1β in whole brain lysates after systemic LPS challenge (ELISA specific for mature IL-1β) [3] is on record?
**A.** The mature IL-1β in whole brain lysates after systemic LPS challenge (ELISA specific for mature IL-1β) was 74.7 % less.
